The test system of one data set is 22rv1. Briefly: Effect on 22rv1 cell viability. Conditions: Homo sapiens. On the procedure:
(§1) The initial interest was to see the importance of length of side chain on B-3. […] Relative cell growth can be assessed using the MTT (3-(4,5-dimethylthiazol-2-yl)-2,5-diphenyltetrazolium bromide) assay, a colorimetric assay for assessing cell metabolic activity. Cells (1000 to 2000 cells/well) in 150 μL culture medium were seeded in wells of a 96-well plate one day before various concentrations of drugs were added. After continuing culture in the presence of the drugs for the indicated time (3-4 days), 20 μL of 5 mg/mL MTT solution (Sigma-Aldrich) was added into each well. After incubation at 37° C. for 30 min, the culture medium was removed and 100 μL of DMSO was added to dissolve MTT crystals. Plates were shaken for 15 min at room temperature and absorbance at OD590 was read by plate reader.

Data set [1] has as its system KDM4B-regulated AR-V7 expression. Conditions: previous report; cited from earlier work.
Data set [2] has as its system cancer cell lines including PC3. Conditions: previous report; includes PC3 cells lacking AR; cited from earlier work.
The next data set has as its system KDM4. The settings on record: previous report; cited from earlier work.
For data set [3], the system named is castration resistant prostate cancer cell line 22RV1. Briefly: 22RV1 xenograft tumor growth in NOD/SCID mice. The class given is in vivo. The settings on record: in words. On the procedure:
All animal work was approved by the Institutional Animal Care and Use Committee. NOD/SCID mice (6-8 weeks old) were subcutaneously injected in the flank region with castration resistant prostate cancer cell line 22RV1 (1×10^6 cells/site) mixed with 50% Matrigel (BD Biosciences). When tumor volumes reached 50-100 mm^3 in size, animals were randomly divided into 5 groups: control (DMSO); B3 (50 or 10 mg/kg in DMSO); SS-79N (20 or 10 mg/kg in DMSO). Each group included six mice. Tumor volume (cubic millimeters) was measured by caliper twice a week and calculated by using the ellipsoid formula (π/6×length×width×depth, see FIGS. 12A-12B).

Data set [4] concerns LNCaP and 22rv1 cell lines. Nature of the data set: SAR statements on LNCaP and 22rv1 cell lines. The class given is cell-based. The settings on record: LNCaP 1 μM, 22rv1 0.5 μM. On the procedure:
All compounds were evaluated for their effects on LNCaP and 22rv1 cell lines at 1 and 0.5 μM concentrations, respectively. […] For this purpose different analogues of B-3 with chain length varying from 0 to 4 carbon were synthesized (Table 1). […] In view of the availability of a variety of commercially available benzyl amines over phenyl propyl amines and method to functionalize analogues with 1C chain compound 14c was selected for further modification.

Data set [5] has as its system prostate and kidney cancer cells. Nature of the data set: Cell growth inhibition / anti-proliferation (MTT). The class given is cell-based, human. The text has this:
Results of MTT assays for compounds disclosed herein can be found in FIGS. 1, 2A-2C, 3, 4, 5, 6, 7, 8, 9, 10A-10C, and 11A-11C.

Another data set relates to LnCap cells. Nature of the data set: Effect on LnCap cell viability. The settings on record: 1 μM. Here is the method:
as §1

Take `O=C(NCCCc1ccccc1)c1cccc(-c2cc(O)c3ncccc3c2)c1` [Compound B-3, reference compound]: the viability at 0.5 µM with 22rv1 (22Rv1, read-out: % Cell Viability of 22rv1 at 0.5 μM) was determined as 63.6%. For the same compound, in the data set with 22rv1 (22Rv1, read-out: % Cell Viability of 22rv1 at 1 μM), the viability at 1 µM was 42.5%. For the same compound, the “inhibition of KDM4B-regulated AR-V7 expression, in words” value in data set [1] is given as “able to inhibit KDM4B-regulated AR-V7 expression”. In data set [2], the “effectiveness against cancer cell lines, in words” value was “highly effective against a variety of cancer cell lines including PC3”. Moreover, the “KDM4 inhibition, in words” value in the data set on KDM4 is “highly selective and potent KDM4 inhibitor”.
On to `O=C(NCc1ccc(C(=O)NC2CCC(C(F)(F)F)CC2)cc1)c1cccc(-c2cc(O)c3ncccc3c2)c1` (centres unmarked) [Compound 17l], for which, in data set [3], the in vivo efficacy entry is on record as “favorable in vivo efficacy”. In addition, in data set [4], the “activity on cell lines, in words (SAR)” value was “improved further”. In addition, the “increase in potency compared to other 8-hydroxyquinoline-containing compounds, such as B3” value in data set [5] (IC50 versus B3) is reported as “more than 20 fold”. The “efficacy compared with the known GSK KDM6B inhibitor” value in data set [5] (in words) is “much better efficacy than the known GlaxoSmithKline (GSK) KDM6B inhibitor”. The IC50 in data set [5] (prostate and kidney cancer cells) was below 200 nM. For the same compound, the “% Cell Viability of LnCap cells at 1 μM” value with LnCap cells is 24.2%.

One may read the viability as a read-out of living cells in per cent, often relative to untreated cells. The IC50 is the concentration needed to halve the response being measured. A high value points to weaker potency in that assay.

The record behind these values is patent US12378201B2, “Histone demethylase inhibitors for treating cancers” (The Board of Regents of the University of Texas System, priority 2019, dated 2025).
